Source: patent publication US5391540A, “Substituted pyridine compounds” (Rohm and Haas Company, priority 1993, dated 1995)

What was measured:
Format in all cases: in vivo
Downy Brome = test: Pre-emergent herbicidal activity (Table A); details: Bromus tectorum, pre-emergence, Dobr, 11.2 kg/ha, 10-14 days, read-out: herbicidal rating (% inhibition)
Outline: (§1)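 Seeds or vegetative propagules were set on topsoil compacted to 0.95 to 1.27 cm below the pan rim, then covered with soil thoroughly mixed with a known amount of test compound in acetone or water carrier. Ratings follow a scale of percent inhibition per species.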

Yellow Nutsedge = test: Pre-emergent herbicidal activity (Table A); details: Cyperus, pre-emergence, Yens, 11.2 kg/ha, 10-14 days, read-out: herbicidal rating (% inhibition)
Outline: as §1

Cocklebur = test: Pre-emergent herbicidal activity (Table A); details: Xanthium strumarium, pre-emergence, Cobu, 11.2 kg/ha, 10-14 days, read-out: herbicidal rating (% inhibition)
Outline: as §1

Barnyardgrass = test: Pre-emergent herbicidal activity (Table A); details: Echinochloa crus-galli, pre-emergence, Bygr, 11.2 kg/ha, 10-14 days, read-out: herbicidal rating (% inhibition)
Outline: as §1

Velvetleaf = test: Pre-emergent herbicidal activity (Table A); details: Abutilon theophrasti, pre-emergence, Vele, 11.2 kg/ha, 10-14 days, read-out: herbicidal rating (% inhibition)
Outline: as §1

Morningglory = test: Pre-emergent herbicidal activity (Table A); details: Ipomoea, pre-emergence, Mogl, 11.2 kg/ha, 10-14 days, read-out: herbicidal rating (% inhibition)
Outline: as §1

Grso = test: plant injury after spraying emerged plants (Table D); parameters: scale not given here
Source text: (§2) Topsoil (silt loam) is sieved through a screen having 1.27 cm openings. […] This mixture is steam sterilized and then placed in aluminum pans 6.985 cm deep having ten holes in the bottom each 0.635 cm in diameter. The soil mixture is compacted to a depth of 1.27 cm. from the top of the pan. A predetermined number of seeds of each of several dicotyledonous and monocotyledonous annual plant species and/or vegetative propagules for the perennial plant species are placed on the soil and pressed into the soil surface. The seeds and/or vegetative propagules are covered with 1.27 cm of a mixture of 50% topsoil and 50% of a mixture of Canadian sphagnum peat moss, vermiculite and a wetting agent. The pans are then placed on a capillary mat on a greenhouse bench and subirrigated as needed.
(§3) In the following Table D the legends used to identify the plant species are the same as those used in the preceding Table B.

Cobu = test: as above; parameters: scale not given here
Source text: as §2, §3

Sobe = test: as above; parameters: scale not given here
Source text: as §2, §3

Whez = test: as above; parameters: scale not given here
Source text: as §2, §3

Prmi = test: as above; parameters: scale not given here
Source text: as §2, §3

Grft = test: as above; parameters: scale not given here
Source text: as §2, §3

Bygr = test: as above; parameters: scale not given here
Source text: as §2, §3

Lacg = test: as above; parameters: scale not given here
Source text: as §2, §3

Corn = test: as above; parameters: scale not given here
Source text: as §2, §3

Mogl = test: as above; parameters: scale not given here
Source text: as §2, §3

Rice = test: as above; parameters: scale not given here
Source text: as §2, §3

COC(=O)c1c(OC)nc(C(F)(F)F)c(N=CSC)c1CC(C)C [Compound 77, 3-pyridinecarboxylic acid, 2-methoxy-4-(2-methylpropyl)-5-[[(methylthio)methylene]amino]-6-(trifluoromethyl)-, methyl ester]
inhibition at 11200 g/ha (Downy Brome): 75 to 100% | inhibition at 11200 g/ha (Yellow Nutsedge): 75 to 100% | inhibition at 11200 g/ha (Cocklebur): 50 to 74% | inhibition at 11200 g/ha (Barnyardgrass): 75 to 100% | inhibition at 11200 g/ha (Velvetleaf): 75 to 100% | inhibition at 11200 g/ha (Morningglory): 75 to 100% | plant injury rating, Grso (Grso; 2.8025 kg/ha): 1 | plant injury rating, Grso (Grso; 11.2100 kg/ha): 1 | plant injury rating, Cobu (Cobu; 2.8025 kg/ha): 1 | plant injury rating, Cobu (Cobu; 11.2100 kg/ha): 3 | plant injury rating, Sobe (Sobe; 1.1210 kg/ha): 1 | plant injury rating, Sobe (Sobe; 2.8025 kg/ha): 1 | plant injury rating, Whez (Whez; 1.1210 kg/ha): 0 | plant injury rating, Whez (Whez; 2.8025 kg/ha): 0 | plant injury rating, Whez (Whez; 5.6050 kg/ha): 0 | plant injury rating, Prmi (Prmi; 1.1210 kg/ha): 0 | plant injury rating, Prmi (Prmi; 2.8025 kg/ha): 0 | plant injury rating, Prmi (Prmi; 5.6050 kg/ha): 0 | plant injury rating, Grft (Grft; 1.1210 kg/ha): 0 | plant injury rating, Grft (Grft; 2.8025 kg/ha): 1 | plant injury rating, Bygr (Bygr; 1.1210 kg/ha): 0 | plant injury rating, Bygr (Bygr; 5.6050 kg/ha): 2 | plant injury rating, Bygr (Bygr; 11.2100 kg/ha): 3 | plant injury rating, Lacg (Lacg; 1.1210 kg/ha): 2 | plant injury rating, Lacg (Lacg; 2.8025 kg/ha): 3 | plant injury rating, Lacg (Lacg; 5.6050 kg/ha): 3 | plant injury rating, Lacg (Lacg; 11.2100 kg/ha): 3 | plant injury rating, Corn (Corn; 2.8025 kg/ha): 2 | plant injury rating, Corn (Corn; 5.6050 kg/ha): 2 | plant injury rating, Corn (Corn; 11.2100 kg/ha): 3 | plant injury rating, Mogl (Mogl; 1.1210 kg/ha): 1 | plant injury rating, Mogl (Mogl; 2.8025 kg/ha): 2 | plant injury rating, Mogl (Mogl; 5.6050 kg/ha): 2 | plant injury rating, Mogl (Mogl; 11.2100 kg/ha): 3 | plant injury rating, Rice (Rice; 1.1210 kg/ha): 0 | plant injury rating, Rice (Rice; 2.8025 kg/ha): 0 | plant injury rating, Rice (Rice; 5.6050 kg/ha): 0 | plant injury rating, Rice (Rice; 11.2100 kg/ha): 0

COC(=O)c1c(OC)nc(C(F)(F)F)c(C2SCCS2)c1CC(C)C [Compound 93, 3-pyridinecarboxylic acid, 5-(1,3-dithiolan-2-yl)-2-methoxy-4-(2-methylpropyl)-6-(trifluoromethyl)-, methyl ester]
inhibition at 11200 g/ha (Downy Brome): 75 to 100% | inhibition at 11200 g/ha (Yellow Nutsedge): 0 to 24% | inhibition at 11200 g/ha (Cocklebur): 0 to 24% | inhibition at 11200 g/ha (Barnyardgrass): 75 to 100% | inhibition at 11200 g/ha (Velvetleaf): 75 to 100% | inhibition at 11200 g/ha (Morningglory): 75 to 100% | plant injury rating, Grso (Grso; 0.0701 kg/ha): 0 | plant injury rating, Grso (Grso; 0.2803 kg/ha): 0 | plant injury rating, Grso (Grso; 1.1210 kg/ha): 0 | plant injury rating, Grso (Grso; 5.6050 kg/ha): 2 | plant injury rating, Cobu (Cobu; 0.0701 kg/ha): 0 | plant injury rating, Cobu (Cobu; 0.2803 kg/ha): 0 | plant injury rating, Cobu (Cobu; 1.1210 kg/ha): 2 | plant injury rating, Cobu (Cobu; 5.6050 kg/ha): 3 | plant injury rating, Sobe (Sobe; 0.0701 kg/ha): 0 | plant injury rating, Sobe (Sobe; 0.2803 kg/ha): 1 | plant injury rating, Sobe (Sobe; 1.1210 kg/ha): 2 | plant injury rating, Sobe (Sobe; 5.6050 kg/ha): 3 | plant injury rating, Whez (Whez; 0.0701 kg/ha): 0 | plant injury rating, Whez (Whez; 0.2803 kg/ha): 0 | plant injury rating, Whez (Whez; 1.1210 kg/ha): 0 | plant injury rating, Whez (Whez; 5.6050 kg/ha): 0 | plant injury rating, Prmi (Prmi; 0.0701 kg/ha): 0 | plant injury rating, Prmi (Prmi; 0.2803 kg/ha): 0 | plant injury rating, Prmi (Prmi; 1.1210 kg/ha): 0 | plant injury rating, Prmi (Prmi; 5.6050 kg/ha): 0 | plant injury rating, Grft (Grft; 0.0701 kg/ha): 0 | plant injury rating, Grft (Grft; 0.2803 kg/ha): 0 | plant injury rating, Grft (Grft; 1.1210 kg/ha): 0 | plant injury rating, Grft (Grft; 5.6050 kg/ha): 1 | plant injury rating, Bygr (Bygr; 0.0701 kg/ha): 0 | plant injury rating, Bygr (Bygr; 0.2803 kg/ha): 0 | plant injury rating, Bygr (Bygr; 1.1210 kg/ha): 0 | plant injury rating, Bygr (Bygr; 5.6050 kg/ha): 2 | plant injury rating, Lacg (Lacg; 0.2803 kg/ha): 2 | plant injury rating, Lacg (Lacg; 1.1210 kg/ha): 3 | plant injury rating, Lacg (Lacg; 5.6050 kg/ha): 3 | plant injury rating, Corn (Corn; 0.0701 kg/ha): 0 | plant injury rating, Corn (Corn; 0.2803 kg/ha): 3 | plant injury rating, Corn (Corn; 1.1210 kg/ha): 3 | plant injury rating, Corn (Corn; 5.6050 kg/ha): 3 | plant injury rating, Mogl (Mogl; 0.0701 kg/ha): 0 | plant injury rating, Mogl (Mogl; 0.2803 kg/ha): 2 | plant injury rating, Mogl (Mogl; 1.1210 kg/ha): 2 | plant injury rating, Mogl (Mogl; 5.6050 kg/ha): 3 | plant injury rating, Rice (Rice; 0.0701 kg/ha): 0 | plant injury rating, Rice (Rice; 0.2803 kg/ha): 0 | plant injury rating, Rice (Rice; 1.1210 kg/ha): 0 | plant injury rating, Rice (Rice; 5.6050 kg/ha): 0

COC(=O)c1c(OC)nc(C(F)(F)F)c(C(=O)NCCCBr)c1CC(C)C [Compound 97, 3-pyridinecarboxylic acid, 5-[[(3-bromopropyl)amino)carbonyl]-2-methoxy-4-(2-methylpropyl)-6-(trifluoromethyl)-, methyl ester]
inhibition at 11200 g/ha (Downy Brome): 50 to 74% | inhibition at 11200 g/ha (Yellow Nutsedge): 0 to 24% | inhibition at 11200 g/ha (Cocklebur): 0 to 24% | inhibition at 11200 g/ha (Barnyardgrass): 75 to 100% | inhibition at 11200 g/ha (Velvetleaf): 50 to 74% | inhibition at 11200 g/ha (Morningglory): 50 to 74% | plant injury rating, Grso (Grso; 0.0701 kg/ha): 0 | plant injury rating, Grso (Grso; 0.2803 kg/ha): 0 | plant injury rating, Grso (Grso; 1.1210 kg/ha): 0 | plant injury rating, Grso (Grso; 5.6050 kg/ha): 0 | plant injury rating, Cobu (Cobu; 0.0701 kg/ha): 0 | plant injury rating, Cobu (Cobu; 0.2803 kg/ha): 0 | plant injury rating, Cobu (Cobu; 1.1210 kg/ha): 0 | plant injury rating, Cobu (Cobu; 5.6050 kg/ha): 0 | plant injury rating, Sobe (Sobe; 0.0701 kg/ha): 0 | plant injury rating, Sobe (Sobe; 0.2803 kg/ha): 0 | plant injury rating, Sobe (Sobe; 1.1210 kg/ha): 0 | plant injury rating, Sobe (Sobe; 5.6050 kg/ha): 0 | plant injury rating, Whez (Whez; 0.0701 kg/ha): 0 | plant injury rating, Whez (Whez; 0.2803 kg/ha): 0 | plant injury rating, Whez (Whez; 1.1210 kg/ha): 0 | plant injury rating, Whez (Whez; 5.6050 kg/ha): 0 | plant injury rating, Prmi (Prmi; 0.0701 kg/ha): 0 | plant injury rating, Prmi (Prmi; 0.2803 kg/ha): 0 | plant injury rating, Prmi (Prmi; 1.1210 kg/ha): 0 | plant injury rating, Prmi (Prmi; 5.6050 kg/ha): 0 | plant injury rating, Grft (Grft; 0.0701 kg/ha): 0 | plant injury rating, Grft (Grft; 0.2803 kg/ha): 0 | plant injury rating, Grft (Grft; 1.1210 kg/ha): 0 | plant injury rating, Grft (Grft; 5.6050 kg/ha): 0 | plant injury rating, Bygr (Bygr; 0.0701 kg/ha): 0 | plant injury rating, Bygr (Bygr; 0.2803 kg/ha): 0 | plant injury rating, Bygr (Bygr; 1.1210 kg/ha): 0 | plant injury rating, Bygr (Bygr; 5.6050 kg/ha): 0 | plant injury rating, Lacg (Lacg; 0.0701 kg/ha): 0 | plant injury rating, Lacg (Lacg; 0.2803 kg/ha): 0 | plant injury rating, Lacg (Lacg; 1.1210 kg/ha): 2 | plant injury rating, Lacg (Lacg; 5.6050 kg/ha): 0 | plant injury rating, Corn (Corn; 0.0701 kg/ha): 0 | plant injury rating, Corn (Corn; 0.2803 kg/ha): 0 | plant injury rating, Corn (Corn; 1.1210 kg/ha): 0 | plant injury rating, Corn (Corn; 5.6050 kg/ha): 0 | plant injury rating, Mogl (Mogl; 0.0701 kg/ha): 0 | plant injury rating, Mogl (Mogl; 0.2803 kg/ha): 0 | plant injury rating, Mogl (Mogl; 1.1210 kg/ha): 0 | plant injury rating, Mogl (Mogl; 5.6050 kg/ha): 0 | plant injury rating, Rice (Rice; 0.0701 kg/ha): 0 | plant injury rating, Rice (Rice; 0.2803 kg/ha): 0 | plant injury rating, Rice (Rice; 1.1210 kg/ha): 0 | plant injury rating, Rice (Rice; 5.6050 kg/ha): 0
